Data: patent US20080319043A1, “3,6-Disubstituted Azabicyclo (3.1.0) Hexane Derivatives as Muscarinic Receptor Antagonists” (priority 2005, published 2008)

Experiments:
[1] = system: isolated rat bladder; experiment: tissue or blood; details: read-out: pKb (converted)

Row | melting point [°C] | Compound | Kb [1] [µM]
1 | 70 to 75 | O=C(NCC1C2CNCC21)C(O)(c1ccccc1)c1cccs1 (centres unmarked) [Compound No. 18, N-(3-Azabicyclo[3.1.0]hex-6-ylmethyl)-2-hydroxy-2-phenyl-2-(2-thienyl)acetamide] | –
2 | 105 to 108 | Cc1cccc(C(O)(C(=O)OCC2C3CNCC32)c2cccc(C)c2)c1 (centres unmarked) [Compound No. 27, 3-Azabicyclo[3.1.0]hex-6-ylmethyl hydroxy[bis(3-methylphenyl)]acetate] | –
3 | – | Nc1cccc(CN2CC3C(CNC(=O)C(O)(c4ccccc4)C4CCCC4)C3C2)n1 (centres unmarked) [Compound No. 51, N-({3-[(6-Aminopyridin-2-yl)methyl]-3-azabicyclo[3.1.0]hex-6-yl}methyl)-2-cyclopentyl-2-hydroxy-2-phenylacetamide] | 0.00251 to 0.0398
4 | – | CC1C2C(CNC(=O)C(O)(c3ccccc3)C3CCCC3)C2CN1Cc1ccccc1 (centres unmarked) [Compound No. 60, N-[(3-Benzyl-2-methyl-3-azabicyclo[3.1.0]hex-6-yl)methyl]-2-cyclopentyl-2-hydroxy-2-phenylacetamide] | 0.00251 to 0.0398
5 | – | O=C(NCC1C2CN(Cc3ccc4c(c3)OCO4)CC12)C(O)(c1ccccc1)C1CCCCC1 (centres unmarked) [Compound No. 80, N-{[3-(1,3-Benzodioxol-5-ylmethyl)-3-azabicyclo[3.1.0]hex-6-yl]methyl}-2-cyclohexyl-2-hydroxy-2-phenylacetamide] | 0.00251 to 0.0398
